Measured values as given in patent publication US20230399327A1, “HIGH ACTIVITY HPK1 KINASE INHIBITOR” (ADLAI NORTYE BIOPHARMA CO., LTD., priority 2020, published 2023).

Biological target: HPK1 kinase (Homo sapiens (Human), UniProt Q92918)
Test: HPK1 kinase activity inhibition (ADP-Glo Kinase Assay)
Format: biochemical
Conditions: HPK1, MBP substrate, ATP, 25° C. 60 min
Experimental: Test Example 1: Detection of Compound's Ability to Inhibit HPK1 Kinase Activity (Method 1)
The specific operation is as follows: configure the enzymatic reaction system buffer (10 mM MOPS, pH 7.2, 5 mM β-glycerol-phosphate, 10 mM MgCl2, 0.8 mM EDTA, 2 mM EGTA, 0.1 mM DTT); the test compound (1 mM the compound stock solution in DMSO) was diluted with buffer to the highest concentration of 60 uM (containing 6% DMSO), and the compound with a concentration of 60 μM was initially diluted 5 times with a buffer containing 6% DMSO for a total of 8 points of gradient concentration; then dilute HPK1 kinase to 30 nM in buffer. Add 2 μl of HPK1 kinase diluent to each well of a Greiner 384-well microplate (Cat. No. 784075), and add 2 μl of buffer to the control well; add 1 μl of the diluted compound to the reaction well after brief centrifugation, and add 1 μl buffer solution containing 6% DMSO to the control well; after short centrifugation, place in a 25° C. constant temperature incubator (Shanghai Yiheng Scientific Instrument Co., Ltd., Cat. No.: LRH-150) and incubate for 20 minutes. Add 3 μl of reaction substrate (10 μM MBP and 20 μM ATP dissolved in distilled water) to each well, briefly centrifuge and incubate in a constant temperature incubator at 25° C. for 60 min, and use ADP-Glo Kinase Assay Kit to detect the enzymatic reaction activity, ADP-Glo Kinase Assay Kit detection is carried out according to the operating instructions of the kit. Data are described using the half maximal inhibitory concentration IC50 of the compound.

Sequence of HPK1 kinase (Q92918 whole entry): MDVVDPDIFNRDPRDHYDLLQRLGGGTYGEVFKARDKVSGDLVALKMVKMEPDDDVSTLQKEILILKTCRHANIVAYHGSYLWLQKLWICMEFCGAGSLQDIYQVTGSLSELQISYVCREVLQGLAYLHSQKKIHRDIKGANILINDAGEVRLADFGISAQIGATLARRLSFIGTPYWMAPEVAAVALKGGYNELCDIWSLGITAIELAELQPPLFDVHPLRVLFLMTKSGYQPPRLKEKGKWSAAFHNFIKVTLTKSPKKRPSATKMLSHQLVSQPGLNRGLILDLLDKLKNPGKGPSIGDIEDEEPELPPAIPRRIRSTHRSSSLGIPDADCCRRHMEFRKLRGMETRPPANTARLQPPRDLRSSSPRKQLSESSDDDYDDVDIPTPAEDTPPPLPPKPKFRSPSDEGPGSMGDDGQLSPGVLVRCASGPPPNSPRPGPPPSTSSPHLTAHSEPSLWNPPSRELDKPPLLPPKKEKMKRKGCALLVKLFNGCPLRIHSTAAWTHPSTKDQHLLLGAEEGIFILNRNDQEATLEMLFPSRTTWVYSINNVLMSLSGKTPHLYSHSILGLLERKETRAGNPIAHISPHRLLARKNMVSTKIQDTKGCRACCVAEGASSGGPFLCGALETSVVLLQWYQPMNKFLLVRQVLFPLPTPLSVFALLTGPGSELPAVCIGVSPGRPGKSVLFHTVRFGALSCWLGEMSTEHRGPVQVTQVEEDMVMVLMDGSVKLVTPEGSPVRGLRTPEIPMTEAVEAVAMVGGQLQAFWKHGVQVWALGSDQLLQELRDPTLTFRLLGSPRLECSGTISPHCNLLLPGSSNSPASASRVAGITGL

| IC50 | SMILES |
| --- | --- |
| < 0.1 nM | COc1nc2c(cc1Nc1ncc3cccc(-c4ccc5c(cnn5C)c4)c3n1)CN(C)CC2 [Example 3, N-(2-methoxy-6-methyl-5,6,7,8-tetrahydro-1,6-naphthyridin-3-yl)-8-(1-methyl-1H-indazole-5-yl)quinazolin-2-amine] |
| < 0.1 nM | COc1nc2c(cc1Nc1ncc3cccc(-c4ccccc4F)c3n1)CN(C)CC2 [Example 4, 8-(2-fluorophenyl)-N-(2-methoxy-6-methyl-5,6,7,8-tetrahydro-1,6-naphthyridin-3-yl)quinazoline-2-amine] |
| < 0.1 nM | COc1ccccc1-c1cccc2cnc(Nc3cc4c(nc3OC)CCN(C)C4)nc12 [Example 5, N-(2-methoxy-6-methyl-5,6,7,8-tetrahydro-1,6-naphthyridin-3-yl)-8-(2-methoxyphenyl)quinazole Lin-2-amine] |
| < 0.1 nM | COc1cccc(-c2cccc3cnc(Nc4cc5c(nc4OC)CCN(C)C5)nc23)c1 [Example 6, N-(2-methoxy-6-methyl-5,6,7,8-tetrahydro-1,6-naphthyridin-3-yl)-8-(3-methoxyphenyl)quinazole Lin-2-amine] |
| 1.22 nM | COc1nc2c(cc1Nc1ncc3cccc(C4=CCOCC4)c3n1)CN(C)CC2 [Example 7, 8-(3,6-dihydro-2H-pyran-4-yl)-N-(2-methoxy-6-methyl-5,6,7,8-tetrahydro-1,6-naphthalenepyridin-3-yl)quinazolin-2-amine] |
| 1.84 nM | COc1nc2c(cc1Nc1ncc3cccc(-c4cnn(C)c4)c3n1)CN(C)CC2 [Example 8, N-(2-methoxy-6-methyl-5,6,7,8-tetrahydro-1,6-naphthyridin-3-yl)-8-(1-methyl-1H-pyrazole-4-yl)quinazolin-2-amine] |
| 3.49 nM | COc1nc2c(cc1Nc1ncc3cccc(-c4cccnc4)c3n1)CN(C)CC2 [Example 9, N-(2-methoxy-6-methyl-5,6,7,8-tetrahydro-1,6-naphthyridin-3-yl)-8-(pyridin-3-yl)quinazoline-2-amine] |
| 1.48 nM | COc1nc2c(cc1Nc1ncc3cccc(-c4ccc(=O)n(C)c4)c3n1)CN(C)CC2 [Example 10, 5-(2-((2-methoxy-6-methyl-5,6,7,8-tetrahydro-1,6-naphthyridin-3-yl)amino)quinazolin-8-yl)-1-Methylpyridin-2(1H)-one] |
| 1.54 nM | COc1nc2c(cc1Nc1ncc3cccc(C4CCOCC4)c3n1)CN(C)CC2 [Example 11, N-(2-methoxy-6-methyl-5,6,7,8-tetrahydro-1,6-naphthyridin-3-yl)-8-(tetrahydro-2H-pyran-4-base) quinazolin-2-amine] |
| 37.8 nM | CNC(=O)c1ccccc1-c1cccc2cnc(Nc3cc4c(nc3OC)CCN(C)C4)nc12 [Example 12, 2-(2-((2-methoxy-6-methyl-5,6,7,8-tetrahydro-1,6-naphthyridin-3-yl)amino)quinazolin-8-yl)-N-methylbenzamide] |
| < 0.1 nM | COC(=O)c1cccc(-c2cccc3cnc(Nc4cc5c(nc4OC)CCN(C)C5)nc23)c1 [Example 13, 3-(2-((2-methoxy-6-methyl-5,6,7,8-tetrahydro-1,6-naphthyridin-3-yl)amino)quinazolin-8-yl) methyl benzoate] |
| 1.92 nM | CNC(=O)c1cccc(-c2cccc3cnc(Nc4cc5c(nc4OC)CCN(C)C5)nc23)c1 [Example 14, 3-(2-((2-methoxy-6-methyl-5,6,7,8-tetrahydro-1,6-naphthyridin-3-yl)amino)quinazolin-8-yl)-N-methylbenzamide] |
| 9.85 nM | COc1nc2c(cc1Nc1ncc3cccc(C4=CCN(C(=O)OC(C)(C)C)CC4)c3n1)CN(C)CC2 [Example 15, 4-(2-((2-methoxy-6-methyl-5,6,7,8-tetrahydro-1,6-naphthyridin-3-yl)amino)quinazolin-8-yl)-3,6-Dihydropyridine-1(2H)-carboxylic acid tert-butyl ester] |
| 1.74 nM | C=C(C)c1cccc2cnc(Nc3cc4c(nc3OC)CCN(C)C4)nc12 [Example 16, N-(2-methoxy-6-methyl-5,6,7,8-tetrahydro-1,6-naphthyridin-3-yl)-8-(prop-1-en-2-yl) quinazolin-2-amine] |
| < 0.1 nM | COc1nc2c(cc1Nc1ncc3cccc(C4=CCN(C(C)=O)CC4)c3n1)CN(C)CC2 [Example 17, 1-(4-(2-((2-methoxy-6-methyl-5,6,7,8-tetrahydro-1,6-naphthyridin-3-yl)amino)quinazoline-8-yl)-3,6-dihydropyridin-1(2H)-yl)ethan-1-one] |
| < 0.1 nM | COc1nc2c(cc1Nc1ncc3cccc(-c4ccccc4OC(F)(F)F)c3n1)CN(C)CC2 [Example 18] |

| IC50 | SMILES |
| --- | --- |
| < 0.1 nM | COc1nc2c(cc1Nc1ncc3cccc(-c4ccccc4SC)c3n1)CN(C)CC2 [Example 19, N-(2-methoxy-6-methyl-5,6,7,8-tetrahydro-1,6-naphthyridin-3-yl)-8-(2-(methylthio)phenyl) Quinazolin-2-amine] |
| < 0.1 nM | COc1cccc(F)c1-c1cccc2cnc(Nc3cc4c(nc3OC)CCN(C)C4)nc12 [Example 21, 8-(2-fluoro-6-methoxyphenyl)-N-(2-methoxy-6-methyl-5,6,7,8-tetrahydro-1,6-naphthyridine-3-base) quinazolin-2-amine] |
| 5.16 nM | COc1nc2c(cc1Nc1ncc3cccc(-c4ccccc4OCc4ccccc4)c3n1)CN(C)CC2 [Example 22, 8-(2-(benzyloxy)phenyl)-N-(2-methoxy-6-methyl-5,6,7,8-tetrahydro-1,6-naphthyridin-3-yl) quinazolin-2-amine] |
| < 0.1 nM | COc1nc2c(cc1Nc1ncc3cccc(-c4cccnc4OC)c3n1)CN(C)CC2 [Example 23, N-(2-methoxy-6-methyl-5,6,7,8-tetrahydro-1,6-naphthyridin-3-yl)-8-(2-methoxypyridin-3-yl) quinazolin-2-amine] |
| < 0.1 nM | COc1nc2c(cc1Nc1ncc3cccc(N4CCCC4=O)c3n1)CN(C)CC2 [Example 24, 1-(2-((2-methoxy-6-methyl-5,6,7,8-tetrahydro-1,6-naphthyridin-3-yl)amino)quinazolin-8-yl) pyrrolidin-2-one] |
| 0.16 nM | COc1ccccc1-c1nccc2cnc(Nc3cc4c(nc3OC)CCN(C)C4)nc12 [Example 25, N-(2-methoxy-6-methyl-5,6,7,8-tetrahydro-1,6-naphthyridin-3-yl)-8-(2-methoxyphenyl)pyrido [3,4-d]pyrimidin-2-amine] |
| 16.2 nM | COc1nc2c(cc1Nc1ncc3ccnc(-c4ccc(=O)n(C)c4)c3n1)CN(C)CC2 [Example 27, 5-(2-((2-methoxy-6-methyl-5,6,7,8-tetrahydro-1,6-naphthyridin-3-yl)amino)pyrido[3,4-d]pyrimidino-8-yl)-1-methylpyridin-2(1H)-one] |
| 0.27 nM | COc1nc2c(cc1Nc1ncc3cccc(-c4ccn(C)n4)c3n1)CN(C)CC2 [Example 30, N-(2-methoxy-6-methyl-5,6,7,8-tetrahydro-1,6-naphthyridin-3-yl)-8-(1-methyl-1H-pyrazole-3-yl)quinazolin-2-amine] |
| 1.66 nM | COc1nc2c(cc1Nc1ncc3cccc(NCC4CCOCC4)c3n1)CN(C)CC2 [Example 31, N2-(2-methoxy-6-methyl-5,6,7,8-tetrahydro-1,6-naphthyridin-3-yl)-N8-((tetrahydro-2H-pyran-4-yl)methyl)quinazoline-2,8-diamine] |
| 3.61 nM | COc1nc2c(cc1Nc1ncc3cccc(N4Cc5ccccc5C4=O)c3n1)CN(C)CC2 [Example 32, 2-(2-((2-methoxy-6-methyl-5,6,7,8-tetrahydro-1,6-naphthyridin-3-yl)amino)quinazolin-8-yl) isoindolin-1-one] |
| 0.52 nM | COc1nc2c(cc1Nc1ncc3ccnc(N4CCCCC4)c3n1)CN(C)CC2 [Example 33, N-(2-methoxy-6-methyl-5,6,7,8-tetrahydro-1,6-naphthyridin-3-yl)-8-(piperidin-1-yl) pyrido[3,4-d]pyrimidin-2-amine] |
| 0.61 nM | COc1nc2c(cc1Nc1ncc3ccnc(-c4cccnc4OC)c3n1)CN(C)CC2 [Example 34, N-(2-methoxy-6-methyl-5,6,7,8-tetrahydro-1,6-naphthyridin-3-yl)-8-(2-methoxypyridin-3-yl) pyrido[3,4-d]pyrimidin-2-amine] |
| 1.16 nM | COc1nc2c(cc1Nc1ncc3ccnc(N4CCOCC4)c3n1)CN(C)CC2 [Example 35, N-(2-methoxy-6-methyl-5,6,7,8-tetrahydro-1,6-naphthyridin-3-yl)-8-morpholinopyrido[3,4-d]pyrimidin-2-amine] |
| 4.27 nM | COc1nc2c(cc1Nc1ncc3cccc(-c4ccccn4)c3n1)CN(C)CC2 [Example 37, N-(2-methoxy-6-methyl-5,6,7,8-tetrahydro-1,6-naphthyridin-3-yl)-8-(pyridin-2-yl)quinazoline-2-amine] |
| 0.41 nM | COc1nc2c(cc1Nc1ncc3cccc(NCc4ccccc4)c3n1)CN(C)CC2 [Example 38, N8-Benzyl-N2-(2-methoxy-6-methyl-5,6,7,8-tetrahydro-1,6-naphthyridin-3-yl)quinazoline-2,8-diamine] |
| < 0.1 nM | COc1nc2c(cc1Nc1ncc3cccc(NCC(C)C)c3n1)CN(C)CC2 [Example 39, N8-isobutyl-N2-(2-methoxy-6-methyl-5,6,7,8-tetrahydro-1,6-naphthyridin-3-yl)quinazoline-2,8-diamine] |
